# Test results: PMC10587159, “Biosynthesis and engineering of the nonribosomal peptides with a C-terminal putrescine” (Nature Communications, 2023)
# Non-standard residues stand in square brackets, D forms with d. Residues, ends and D or L forms follow the SMILES beside them. *: point of attachment. dMet(O) = CS(=O)CC[C@@H](N)C(=O)O; Lauroyl = CCCCCCCCCCCC(=O)*; Decanoyl = CCCCCCCCCC(=O)*; NH(CH2)4NH2 = NCCCCN*; For = O=C*
# Assays:
# [1] = tested on: S. brevitalea DSM 7029 wild type; assay: Biofilm formation of DSM 7029 wild type with compounds (crystal violet); assay type: cell-based, Schlegelella brevitalea DSM 7029
# Method: (§1) The growth curve was tested by Bioscreen C (Labsystems, Finland) as follow. Overnight culture was inoculated into 400 μL fresh CYMG medium in the ratio of 1:100 (the concentration of compounds was 0.1 μg/μL) and shook in normal speed. The OD600 value was gained in every hour for 42 h in total. Biofilm formation was measured at 18 h and 36 h respectively, as reported previously. In brief, the free-floating cells were removed, and the microtitre plate was washed with PBS (pH 7.4) after incubation for 18 h and 36 h. The biofilm was stained by adding 200 µL of crystal violet (0.1%) solution. Crystal violet solution was removed after 15 min and 200 µL of ethanol (95%) was added. The absorbance at OD600 was read using a microplate reader (Infinite M200, Tecan, Männedorf, Switzerland). Meanwhile, free-floating cells were used to test the secretion of pigment. The bacteria were removed and the supernatant was measured at OD600.
# [2] = tested on: human lung adenocarcinoma cell A549; assay: MTT cytotoxicity assay, A549; assay type: cell-based; conditions: 24 h
# From the text: (§2) The two human acute lymphoblastic leukemia cells K562 and Kasumi, two human breast adenocarcinoma cells MCF7 and MDA-MB-231, human hepatoma cell HepG-2, human lung adenocarcinoma cell A549, human gastric cancer cell SGC-7901, human colon cancer cell HCT-116, human ovarian cancer cell line SKOV3, or human lung epithelial normal cell 2B were obtained from Beyotime Biotechnology and utilized to test the cytotoxicity of compounds by MTT assays as previous study. The anti-inflammatory effect of the compounds was detected by the influence on the increase in the level of nitric oxide caused by lipopolysaccharide (LPS) based on the classic Griess method. RAW 264.7 cells (Shanghai Institutes for Biological Science) were seeded in 96-well plates and incubated for 24 h. Then, cells were treated with compounds 29, 29a, 31, and 31a (0-80 μM) for 30 min, followed by co-treatment with LPS ([…]) for another 24 h. The Nitric Oxide assay kit with Griess reagents (Beyotime, Lot: S0021, Shanghai, China) was used to examine cellular supernatant nitrite accumulation, which represents cellular NO levels. The OD value of 540 nm absorbance was detected with a microplate reader. Their authentication in the laboratory was performed regularly based on morphology and gene/protein expression. The tested micro-organisms including Gram-negative bacteria E. coli ATCC 35218 and Pseudomonas aeruginosa ATCC 27853, and Gram-positive bacteria Staphylococcus aureus ATCC 29213 and B. subtilis ATCC 6633, and fungi Candida albicans, Rhizoctonia solani and Aspergillus fumigatus were treated with different concentrations of compounds (1 μM, 10 μM, 100 μM) using Bauer-Kirby disk diffusion method to evaluate the antimicrobial activities.
# human cells Kasumi = assay: MTT cytotoxicity assay, Kasumi; assay type: cell-based; conditions: 24 h
# From the text: as §2
# [3] = tested on: human acute lymphoblastic leukemia cells K562; assay: cells; assay type: cell-based; conditions: 24 h
# From the text: as §2
# [4] = tested on: human colon cancer cell HCT-116; assay: cells; assay type: cell-based; conditions: 24 h
# From the text: as §2
# [5] = tested on: human gastric cancer cell SGC-7901; assay: cells; assay type: cell-based; conditions: 24 h
# From the text: as §2
# [6] = tested on: human breast adenocarcinoma cells MCF7; assay: cells; assay type: cell-based; conditions: 24 h
# From the text: as §2
# [7] = tested on: human lung epithelial normal cell 2B; assay: cells; assay type: cell-based; conditions: 24 h
# From the text: as §2
# [8] = tested on: human breast adenocarcinoma cells MDA-MB-231; assay: cells; assay type: cell-based; conditions: 24 h
# From the text: as §2
# [9] = tested on: human hepatoma cell HepG-2; assay: cells; assay type: cell-based; conditions: 24 h
# From the text: as §2
# [10] = tested on: S. brevitalea DSM 7029 wild type; assay: Growth curve of DSM 7029 wild type with compounds (Bioscreen C); assay type: cell-based, Schlegelella brevitalea DSM 7029; conditions: CYMG medium, compound 0.1 μg/μL, OD600 every hour for 42 h, Bioscreen C
# Method: as §1
# tumor lines = assay: MTT cytotoxicity assay, statements on the whole panel; assay type: cell-based, human; conditions: MTT assay, panel of tumor cell lines
# From the text: as §2
# [11] = tested on: C13 domain of GdnB fragments and mutants; assay: Condensation of T12-linked L-Ala with Put or other diamines (yield of 24a-27a, LC-MS); assay type: biochemical, Schlegelella brevitalea DSM 7029; conditions: Average of n = 3
# Method: In vitro assays for the different enzymes of the C-terminal multi-domains were performed. Reaction buffer contained 80 μM protein, 3 μM Sfp from B. subtilis, 200 μM CoA, 2.5 mM L-Ala and 5 mM ATP was incubated at 30 °C for 30 min. Then, 2.5 mM diamines or polyamines (i.e. putrescine, 1,7-diaminoheptane, 1,6-diaminohexane, 1,5-diaminopentane, 1,2-diaminocyclohexane, spermine, and spermidine, respectively) was added to make final volume of 200 μL. The reaction was further incubated at 30 °C for 1 h or 4 h. Triple amount of cold methanol was added to quench the reaction, and the supernatant was dried by SpeedVac after removed the precipitate at 10,000 × g for 8 min. The reaction mixture was dissolved with 200 μL ddH2O, and then the mixture was derived with D-FDAA according to the procedure of the above Marfey’s analysis. The final reaction mixture was suspended using 100 μL 2 M HCl, which subsequently was dried by SpeedVac. Finally, the mixture dissolved with 100 μL MeOH to detect the target products (24a, 25a, 26a, and 27a) using LC‒MS analysis (5%‒95% ACN in 15 min).
# [12] = tested on: A1 domain of CsA1T1 (GdnA); assay: Adenylation activity of A1 domain (ATP/PPi exchange, pyrophosphate production assay); assay type: biochemical, Schlegelella brevitalea DSM 7029; conditions: for relative activity of A1 domain for the activation of amino acids, Average: CsA1T1 1 μM, 10 mM amino acid, 2.5 mM ATP, pH 7.6, A360, L-Met = 100%, mean of n = 3; for selectivity of A1 domain for amino acids in words: response to reviewers on Supplementary Fig. 6a
# Method: For pyrophosphate production assays, the reaction system contains 10 mM amino acid substrates, 2.5 mM ATP (Solarbio), 0.2 mM MESG (Medchemexpress), 1 U/mL purine nucleoside phosphorylase (Shanghai yuanye Bio-Technology Co., Ltd), 0.4 U/mL inorganic pyrophosphatase (Sigma), 150 mM hydroxylamine (Sigma) and 1 μM proteins in 100 μL buffer (50 mM Tris, 300 mM NaCl and 5 mM MgCl2, pH 7.6). The value was read at A360 in a SpectraMax M5 plate reader (Molecular Devices, Sunnyvale, California) in 96 well, clear-bottomed plates (Corning). A360 values were converted to pyrophosphate release, by comparing with a standard curve (KH2PO4 from 2 μM to 128 μM) for known quantities of pyrophosphate.
compound,measurement,setting,value
"CC(C)[C@H](NC(=O)[C@@H]1CCCN1C(=O)[C@@H](CC(N)=O)NC(=O)[C@H](N)CC[S+](C)[O-])C(=O)N[C@H](Cc1ccccc1)C(=O)N1CCC[C@H]1C(=O)N[C@@H](Cc1c[nH]c2ccccc12)C(=O)N[C@@H](C(=O)N[C@@H](C)C(=O)N[C@H](C)C(=O)N[C@@H](CO)C(=O)N[C@@H](C)C(=O)NCCCCN)C(C)C (stereo partly shown) [Compound 2, Glidonin B] (H-[dMet(O)][dN]PV[dF]PW[dV]A[dA]SA-{NH(CH2)4NH2})",effect on biofilm formation of DSM 7029 wild type in words,[1]; crystal violet staining,less effect on biofilm formation
same,"biofilm formation 18 h, Average","[1]; relative to wild type treated with H2O = 100%, crystal violet 0.1%, OD600, mean of n = 3",92.0189%
same,biofilm formation 36 h,"[1]; relative to wild type treated with H2O = 100%, crystal violet 0.1%, OD600, replicate 1",105.006%
same,biofilm formation 36 h,"[1]; relative to wild type treated with H2O = 100%, crystal violet 0.1%, OD600, replicate 2",81.9095%
same,biofilm formation 36 h,"[1]; relative to wild type treated with H2O = 100%, crystal violet 0.1%, OD600, replicate 3",97.572%
same,IC50,[2],> 20 µM
same,IC50,human cells Kasumi,> 20 µM
same,IC50,[3],> 20 µM
same,IC50,[4],> 20 µM
same,IC50,[5],> 20 µM
same,IC50,[6],> 20 µM
same,IC50,[7],> 20 µM
same,IC50,[8],> 20 µM
same,IC50,[9],> 20 µM
same,effect on growth of DSM 7029 wild type in words,[10],no effect
"CSCC[C@@H](NC=O)C(=O)N[C@H](CC(N)=O)C(=O)N1CCC[C@H]1C(=O)N[C@H](C(=O)N[C@H](Cc1ccccc1)C(=O)N1CCC[C@H]1C(=O)N[C@@H](Cc1c[nH]c2ccccc12)C(=O)N[C@@H](C(=O)N[C@@H](C)C(=O)N[C@H](C)C(=O)N[C@@H](CO)C(=O)N[C@@H](C)C(=O)NCCCCN)C(C)C)C(C)C [Compound 4, Glidonin D] (For-[dM][dN]PV[dF]PW[dV]A[dA]SA-{NH(CH2)4NH2})",IC50,[2],> 20 µM
same,IC50,human cells Kasumi,> 20 µM
same,IC50,[3],> 20 µM
same,IC50,[4],> 20 µM
same,IC50,[5],> 20 µM
same,IC50,[6],> 20 µM
same,IC50,[7],> 20 µM
same,IC50,[8],> 20 µM
same,IC50,[9],> 20 µM
"CCCCCCCCCC(=O)N[C@H](CCSC)C(=O)N[C@H](CC(N)=O)C(=O)N1CCC[C@H]1C(=O)N[C@H](C(=O)N[C@H](Cc1ccccc1)C(=O)N1CCC[C@H]1C(=O)N[C@@H](Cc1c[nH]c2ccccc12)C(=O)N[C@@H](C(=O)N[C@@H](C)C(=O)N[C@H](C)C(=O)N[C@@H](CO)C(=O)N[C@@H](C)C(=O)NCCCCN)C(C)C)C(C)C [Compound 6, Glidonin F] (Decanoyl-[dM][dN]PV[dF]PW[dV]A[dA]SA-{NH(CH2)4NH2})",IC50,[2],> 20 µM
same,IC50,[7],> 20 µM
same,IC50,[8],> 20 µM
same,IC50,[9],> 20 µM
"CCCCCCCCCCCC(=O)N[C@H](CC(C)C)C(=O)N[C@H](CC(N)=O)C(=O)N1CCC[C@H]1C(=O)N[C@H](C(=O)N[C@H](Cc1ccccc1)C(=O)N1CCC[C@H]1C(=O)N[C@@H](Cc1c[nH]c2ccccc12)C(=O)N[C@@H](C(=O)N[C@@H](C)C(=O)N[C@H](C)C(=O)N[C@@H](CO)C(=O)N[C@@H](C)C(=O)NCCCCN)C(C)C)C(C)C [Compound 9, Glidonin I] (Lauroyl-[dL][dN]PV[dF]PW[dV]A[dA]SA-{NH(CH2)4NH2})",IC50,[2],3.26 µM
same,IC50,human cells Kasumi,9.65 ± 0.4 µM
same,IC50,[3],> 20 µM
same,IC50,[4],> 20 µM
same,IC50,[5],> 20 µM
same,IC50,[6],> 20 µM
same,IC50,[7],10.4 ± 0.54 µM
same,IC50,[8],4.26 µM
same,IC50,[9],> 20 µM
same,cytotoxic / antitumor activity in words,tumor lines,broad-spectrum cytotoxicity
"CC(N)C(=O)NCCCCNc1cc(NC(C)C(N)=O)c([N+](=O)[O-])cc1[N+](=O)[O-] [Compound 24a, L-Ala-Put-FDAA]","L-Ala condensing with Put, 1,5-diaminopentane, 1,6-diaminohexane, and 1,7-diaminoheptane (Relative Yield of product)",[11]; protein A12T12,100
same,"L-Ala condensing with Put, 1,5-diaminopentane, 1,6-diaminohexane, and 1,7-diaminoheptane (Relative Yield of product)",[11]; protein A12T12C13A*T13,1640
CC(N)C(=O)NCCCCCNc1cc(NC(C)C(N)=O)c([N+](=O)[O-])cc1[N+](=O)[O-] (stereo not shown) [Compound 25a],"L-Ala condensing with Put, 1,5-diaminopentane, 1,6-diaminohexane, and 1,7-diaminoheptane (Relative Yield of product)",[11]; protein A12T12,100
same,"L-Ala condensing with Put, 1,5-diaminopentane, 1,6-diaminohexane, and 1,7-diaminoheptane (Relative Yield of product)",[11]; protein A12T12C13A*T13,794.339
NCC(=O)O [Gly],"relative activity of A1 domain for the activation of amino acids, Average",[12],3.896%
C[C@H](N)C(=O)O [L-Ala],"relative activity of A1 domain for the activation of amino acids, Average",[12],37.8571%
same,selectivity of A1 domain for amino acids in words,[12],broad selectivity
NC(=O)C[C@H](N)C(=O)O [L-Asn],"relative activity of A1 domain for the activation of amino acids, Average",[12],8.604%
N[C@@H](CS)C(=O)O [L-Cys],"relative activity of A1 domain for the activation of amino acids, Average",[12],4.302%
NC(=O)CC[C@H](N)C(=O)O [L-Gln],"relative activity of A1 domain for the activation of amino acids, Average",[12],42.7539%
same,selectivity of A1 domain for amino acids in words,[12],broad selectivity
